Reference: US20080108710A1, “High-Potency Sweetener Composition With Preservative and Compositions Sweetened Therewith” (THE COCA-COLA COMPANY, priority 2006, published 2008)

Tests used:
[1] = Rate of dissolution of rebaudioside A polymorph and amorphous forms in H2O; type: physicochemical
Text: The purification of rebaudioside A by crystallization as described above results in the formation of at least three different polymorphs: Form 1: a rebaudioside A hydrate; Form 2: an anhydrous rebaudioside A; and Form 3: a rebaudioside A solvate. In addition to the at least three polymorph forms of rebaudioside A, the purification of rebaudioside A may result in the formation of an amorphous form of rebaudioside A, Form 4. The aqueous organic solution and temperature of the purification process influence the resulting polymorph and amorphous forms in the substantially pure rebaudioside A composition. FIGS. 1-5 are exemplary powder x-ray diffraction (XRPD) scans of the polymorph and amorphous forms of rebaudioside A: Form 1 (hydrate), Form 2 (anhydrate), Form 3A (methanol solvate), Form 3B (ethanol solvate), and Form 4 (amorphous), respectively.

[2] = test system: panel of experts in the sensory evaluation of foods and beverages; assay: Sensory evaluation of sweetness linger and taste characteristics; type: in vivo; set-up: key: 0: no sweetness linger; 1: very slight sweetness linger; 2: slight sweetness linger; 3: moderate sweetness linger; 4: moderately high sweetness linger; 5: high sweetness linger
Method: Sensory evaluation of the samples prepared in Example Set G was carried out under the following protocol, similar to that described hereinabove. In this test protocol, none of the samples were swallowed. All samples were expectorated and the mouth was rinsed with water after the tasting. Immediately upon sensing maximal sweetness, the sample was expectorated, the mouth was rinsed with water and the rate of sweetness decay (“Sweetness Linger”) was measured, where attention was focused on the sweetness 3-4 min after the water rinse. After sample tasting was complete, a salty oyster cracker was chewed followed by a water rinse, and at least 5 minutes followed before tasting the next sample. […]
Sweet taste improving compositions were combined with a REBA solution to determine their effect on sweetness linger. Screening of the initial sample, or further dilutions, allowed identification of concentrations which were just above-threshold, herein defined as “near-threshold concentrations.” The near-threshold additive concentrations, a 6- to 100-fold higher higher additive concentration (depending on the off-taste intensity), and a mid-level additive concentration (halfway between the near-threshold and higher additive concentration) were evaluated to determine the effect on sweetness linger of a REBA solution. […]

Row | Rate of dissolution in H2O at 25° C. [1] | Substance | Sweetness Linger ([2]; Example Set G: citric acid/potassium citrate composition equivalent to diet lemon-lime beverage, scale 0-5, sweetness 3-4 min after water rinse) | Sweetness Linger ([2]; Example Set H: carbon-treated water with phosphoric acid (75%) to pH 2.4-2.5, scale 0-5)
1 | Very low (<0.2%/60 %/60 minutes | rebaudioside A [Form 1] | – | –
2 | – | rebaudioside A | 5 | 5
3 | Intermediate (<30%/5 %/5 minutes | rebaudioside A [Form 2] | – | –
